Results taken from the supplement of paper PMC10721915.
± gives the standard deviation of the averaged measurements.

Compound: COc1ccc([C@@H](O)c2cc(-c3ncnc4cc(N5CCOCC5)ccc34)c(F)cc2Cl)nn1 [peposertib]
Experiment: relative cell growth vs untreated control (GI, NCI-DTP normalisation with time-zero) (fraction of control growth); higher = more growth / less inhibition
Details: treatment time: 120 h
Experimental: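 Cancer cell lines were treated with peposertib (DNA-PK inhibitor) combined with gamma ionizing radiation (0, 2, 3 or 6 Gy) for 120 h, starting 48 h after seeding. Read-out was sulforhodamine B total-protein staining, normalised to untreated control and time-zero wells (NCI-DTP GI convention).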

[1] = peposertib concentration 0.00488 µM, gamma irradiation dose (Gy): 0
[2] = peposertib concentration 0.00488 µM, gamma irradiation dose (Gy): 3
[3] = peposertib concentration 0.0195 µM, gamma irradiation dose (Gy): 0
[4] = peposertib concentration 0.0195 µM, gamma irradiation dose (Gy): 3
[5] = peposertib concentration 0.0781 µM, gamma irradiation dose (Gy): 0
[6] = peposertib concentration 0.0781 µM, gamma irradiation dose (Gy): 3
[7] = peposertib concentration 0.313 µM, gamma irradiation dose (Gy): 0
[8] = peposertib concentration 0.313 µM, gamma irradiation dose (Gy): 3
[9] = peposertib concentration 1.25 µM, gamma irradiation dose (Gy): 0
[10] = peposertib concentration 1.25 µM, gamma irradiation dose (Gy): 3
[11] = peposertib concentration 5 µM, gamma irradiation dose (Gy): 0
[12] = peposertib concentration 5 µM, gamma irradiation dose (Gy): 3

Test System | relative cell growth [1] | relative cell growth [2] | relative cell growth [3] | relative cell growth [4] | relative cell growth [5] | relative cell growth [6] | relative cell growth [7] | relative cell growth [8] | relative cell growth [9] | relative cell growth [10] | relative cell growth [11] | relative cell growth [12]
NCIH358M | 1.004 ± 0.01 | 0.299 | 0.975 ± 0.03 | 0.27 | 0.963 ± 0.03 | 0.182 | 0.869 ± 0.1 | 0.181 | 0.695 ± 0.16 | 0.108 | 0.345 ± 0.078 | 0.0702
NCIH460 | 1.05 ± 0.025 | 0.302 | 1.04 ± 0.02 | 0.384 | 1.02 ± 0.025 | 0.181 | 0.934 ± 0.16 | 0.0919 | 0.661 ± 0.37 | 0.044 | 0.177 ± 0.11 | 0.0283
OVCAR3 | 0.907 | – | 0.952 | – | 0.919 | – | 0.739 | – | 0.372 | – | 0.0464 | –
OVCAR4 | 1.03 | – | 1.01 | – | 0.983 | – | 0.875 | – | 0.858 | – | 0.633 | –
PANC1 | 0.969 | – | 0.974 | – | 0.956 | – | 0.92 | – | 0.741 | – | 0.411 | –
PC3 | 1.04 | – | 1 | – | 0.971 | – | 0.781 | – | 0.532 | – | 0.262 | –
PLCPRF5 | 1.01 | – | 0.969 | – | 0.974 | – | 0.898 | – | 0.807 | – | 0.586 | –
RAMOS | 1.06 | – | 0.987 | – | 0.927 | – | 0.736 | – | 0.377 | – | 0.129 | –
RD | 0.929 | – | 0.97 | – | 0.942 | – | 0.94 | – | 0.826 | – | 0.455 | –
RDES | 0.935 | – | 0.961 | – | 0.971 | – | 0.785 | – | 0.57 | – | 0.24 | –
SAOS2 | 0.945 | – | 0.983 | – | 0.946 | – | 0.82 | – | 0.458 | – | 0.0757 | –
SF268 | 1.01 | – | 0.994 | – | 0.943 | – | 0.867 | – | 0.747 | – | 0.516 | –
SF295 | 1.03 | – | 1.01 | – | 0.992 | – | 0.945 | – | 0.54 | – | 0.209 | –
SKBR3 | 0.938 | – | 1.03 | – | 1.03 | – | 0.89 | – | 0.523 | – | 0.0447 | –
SKLMS1 | 0.903 | – | 0.977 | – | 0.896 | – | 0.593 | – | 0.435 | – | 0.169 | –
SKMEL5 | 1.07 | – | 1.07 | – | 1.11 | – | 1.08 | – | 0.72 | – | 0.202 | –
SKMEL28 | 1 | – | 1.02 | – | 0.902 | – | 0.746 | – | 0.648 | – | 0.477 | –
SUDHL6 | 0.943 | – | 0.915 | – | 0.816 | – | 0.254 | – | -0.0283 | – | -0.0413 | –
SUDHL10 | 1.01 | – | 1.01 | – | 1.02 | – | 1.12 | – | 1.12 | – | 0.345 | –
